Assay [1] deals with T1, RNA-binding protein pos-1 (Caenorhabditis elegans, UniProt G5EF15).
T1 sequence (G5EF15 whole entry): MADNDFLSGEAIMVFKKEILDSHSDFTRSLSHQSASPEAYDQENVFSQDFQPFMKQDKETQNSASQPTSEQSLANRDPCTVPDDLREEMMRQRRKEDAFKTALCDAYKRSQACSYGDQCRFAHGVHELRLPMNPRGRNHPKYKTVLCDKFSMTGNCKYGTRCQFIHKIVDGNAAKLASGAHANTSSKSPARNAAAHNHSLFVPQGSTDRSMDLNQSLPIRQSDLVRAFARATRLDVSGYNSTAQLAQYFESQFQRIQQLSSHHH
The assay is described as follows: inhibitors of POS-1/mex-3 RNA binding, dose response, biochemical, fluorescence polarization (AID 1964).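 Note: purified POS-1 fused to maltose binding protein made in E. coli; potency of compounds blocking POS-1 binding to fluorescent RNA.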 Background: Polarisation of emitted light reports the rotation of a fluorescent probe.

Assay [2] addresses Induced myeloid leukemia cell differentiation protein Mcl-1 (Homo sapiens, UniProt Q07820). The format is functional.
The target of assay [3] is T2, Rac GTPase-activating protein 1 (Homo sapiens, UniProt Q9H0H5).
T2 sequence (Q9H0H5 whole entry): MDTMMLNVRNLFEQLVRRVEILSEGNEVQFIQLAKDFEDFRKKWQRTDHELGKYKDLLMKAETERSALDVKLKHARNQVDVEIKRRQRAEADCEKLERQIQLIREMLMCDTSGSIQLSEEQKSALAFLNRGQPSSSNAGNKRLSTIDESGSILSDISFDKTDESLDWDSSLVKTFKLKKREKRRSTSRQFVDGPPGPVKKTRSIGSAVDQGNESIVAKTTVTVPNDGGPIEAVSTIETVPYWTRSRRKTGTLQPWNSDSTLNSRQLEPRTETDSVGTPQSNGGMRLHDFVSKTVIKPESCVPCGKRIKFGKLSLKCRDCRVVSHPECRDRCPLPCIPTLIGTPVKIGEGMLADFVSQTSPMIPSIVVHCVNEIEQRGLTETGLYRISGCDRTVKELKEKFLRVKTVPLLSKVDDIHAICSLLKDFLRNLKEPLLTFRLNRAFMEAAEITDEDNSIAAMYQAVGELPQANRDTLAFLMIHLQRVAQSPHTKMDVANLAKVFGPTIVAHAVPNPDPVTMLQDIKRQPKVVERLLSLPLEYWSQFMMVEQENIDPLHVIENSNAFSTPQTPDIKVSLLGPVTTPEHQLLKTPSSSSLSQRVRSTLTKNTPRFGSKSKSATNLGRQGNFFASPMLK
The assay is described as follows: MgcRacGAP GTPase-activating activity inhibitors, confirmation, biochemical, ADP Hunter fluorescence, primary and confirmatory (AID 624330). The format is functional.

Assay [4] addresses Glyceraldehyde-3-phosphate dehydrogenase (Homo sapiens, UniProt P04406).
The target in assay [5] is T3, Sentrin-specific protease 8 (Homo sapiens, UniProt Q96LD8).
T3 sequence (Q96LD8 whole entry): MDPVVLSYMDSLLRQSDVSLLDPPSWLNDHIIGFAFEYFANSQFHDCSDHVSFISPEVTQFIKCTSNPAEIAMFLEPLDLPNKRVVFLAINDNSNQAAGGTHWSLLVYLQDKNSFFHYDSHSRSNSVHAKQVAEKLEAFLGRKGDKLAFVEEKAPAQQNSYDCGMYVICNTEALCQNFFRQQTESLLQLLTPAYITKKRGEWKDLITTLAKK
The assay can be described thus: SENP8 protease inhibitors, SAR follow-up, biochemical, luminescence (AID 504501). In kind it is functional.

The target of a further assay is Exodeoxyribonuclease V (Escherichia coli (strain K12), UniProt P04993+P07648+P08394). The assay is described as follows: E. coli RecBCD inhibitors, dose response, counter-screen for AddAB inhibitor project, absorbance, V66 E. coli, mutant T4 phage (AID 492957). In kind it is functional, cell-based, Escherichia coli str. K-12 substr. MG1655. A general note: The purpose of a counterscreen is to sort out artefacts and off-target activity.

Assay [6] has as its target Serine/threonine-protein kinase 17A (Homo sapiens, UniProt Q9UEE5). The format is functional.
The target in assay [7] is Tyrosine-protein kinase ITK/TSK (Homo sapiens, UniProt Q08881). In kind it is functional.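 Note: affinity for ITK measured as one member of a broad kinase panel profiling binding across the kinome.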
Assay [8] deals with Megakaryocyte-associated tyrosine-protein kinase (Homo sapiens, UniProt P42679). In kind it is functional.
For assay [9], the target named is Serine/threonine-protein kinase pim-1 (Homo sapiens, UniProt P11309). The format is functional.
The target in assay [10] is Serine/threonine-protein kinase PLK4 (Homo sapiens, UniProt O00444). The format is functional.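 Note: PLK4 measured as one member of a kinome-wide kinase profiling panel.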
Assay [11] deals with Macrophage colony-stimulating factor 1 receptor (Homo sapiens, UniProt P07333). The format is functional.
A further assay addresses Ephrin type-A receptor 2 (Homo sapiens, UniProt P29317). The format is functional.
Assay [12] addresses Serine/threonine-protein kinase PLK3 (Homo sapiens, UniProt Q9H4B4). In kind it is functional.
Assay [13] addresses Mitogen-activated protein kinase 9 (Homo sapiens, UniProt P45984). The format is functional.
The target in assay [14] is Mitogen-activated protein kinase 13 (Homo sapiens, UniProt O15264). The format is functional.
The target of assay [15] is Vascular endothelial growth factor receptor 2 (Homo sapiens, UniProt P35968). The format is functional.
Assay [16] concerns the target MAP kinase-activated protein kinase 5 (Homo sapiens, UniProt Q8IW41). In kind it is functional.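 Note: measured as one member of a kinome panel.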
The target in assay [17] is Fibroblast growth factor receptor 3 (Homo sapiens, UniProt P22607). In kind it is functional.
Assay [18] deals with Cyclin-dependent kinase 2 (Homo sapiens, UniProt P24941). The format is functional.
For assay [19], the target named is Eukaryotic elongation factor 2 kinase (Homo sapiens, UniProt O00418). In kind it is functional.
Assay [20] deals with Serine/threonine-protein kinase PAK 1 (Homo sapiens, UniProt Q13153). The format is functional.
Assay [21] has as its target Cyclin-dependent kinase 7 (Homo sapiens, UniProt P50613). The format is functional.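 Note: value comes from a kinome-wide kinase profiling panel in which CDK7 is one member.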
For assay [22], the target named is MAP kinase-activated protein kinase 3 (Homo sapiens, UniProt Q16644). The format is functional.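 Note: value comes from a kinome-wide profiling panel in which MAPKAPK3 is one of the panel members.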
Assay [23] concerns the target Mitogen-activated protein kinase kinase kinase kinase 5 (Homo sapiens, UniProt Q9Y4K4). In kind it is functional.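 Note: measured as one member of a kinome-spanning kinase panel.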

Molecules are shown by their SMILES. The source made the active and inactive calls. A value given as a limit tells only on which side of the number the result lay.

Cyclin-dependent kinase 7, sequence (P50613 whole entry): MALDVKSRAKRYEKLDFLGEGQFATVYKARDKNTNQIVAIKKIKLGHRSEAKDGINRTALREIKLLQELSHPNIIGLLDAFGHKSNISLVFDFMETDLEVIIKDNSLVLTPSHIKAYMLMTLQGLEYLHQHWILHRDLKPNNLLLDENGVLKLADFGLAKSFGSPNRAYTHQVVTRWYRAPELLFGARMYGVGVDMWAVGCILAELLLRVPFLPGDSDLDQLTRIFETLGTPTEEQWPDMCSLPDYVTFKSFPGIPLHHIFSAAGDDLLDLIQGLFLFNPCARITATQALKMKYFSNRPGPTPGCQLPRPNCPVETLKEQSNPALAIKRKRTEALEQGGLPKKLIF
Serine/threonine-protein kinase pim-1, sequence (P11309 whole entry): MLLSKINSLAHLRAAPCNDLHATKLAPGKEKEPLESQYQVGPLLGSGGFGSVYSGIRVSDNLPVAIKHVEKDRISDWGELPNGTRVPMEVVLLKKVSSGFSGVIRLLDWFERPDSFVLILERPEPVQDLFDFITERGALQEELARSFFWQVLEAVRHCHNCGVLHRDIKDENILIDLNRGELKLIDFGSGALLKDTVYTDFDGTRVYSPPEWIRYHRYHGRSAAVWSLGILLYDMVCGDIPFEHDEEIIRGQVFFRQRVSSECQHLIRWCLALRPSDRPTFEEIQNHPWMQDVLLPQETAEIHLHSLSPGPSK
Induced myeloid leukemia cell differentiation protein Mcl-1, sequence (Q07820 whole entry): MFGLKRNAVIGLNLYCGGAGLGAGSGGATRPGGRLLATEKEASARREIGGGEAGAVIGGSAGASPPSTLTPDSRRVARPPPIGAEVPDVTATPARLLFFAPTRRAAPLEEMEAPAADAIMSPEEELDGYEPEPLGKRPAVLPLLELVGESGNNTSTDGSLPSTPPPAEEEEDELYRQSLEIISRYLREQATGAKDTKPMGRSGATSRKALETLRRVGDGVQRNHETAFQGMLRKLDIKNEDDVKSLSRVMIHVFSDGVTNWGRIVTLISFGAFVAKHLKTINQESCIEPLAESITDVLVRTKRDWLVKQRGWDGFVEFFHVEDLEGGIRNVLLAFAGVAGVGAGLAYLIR
Mitogen-activated protein kinase 13, sequence (O15264 whole entry): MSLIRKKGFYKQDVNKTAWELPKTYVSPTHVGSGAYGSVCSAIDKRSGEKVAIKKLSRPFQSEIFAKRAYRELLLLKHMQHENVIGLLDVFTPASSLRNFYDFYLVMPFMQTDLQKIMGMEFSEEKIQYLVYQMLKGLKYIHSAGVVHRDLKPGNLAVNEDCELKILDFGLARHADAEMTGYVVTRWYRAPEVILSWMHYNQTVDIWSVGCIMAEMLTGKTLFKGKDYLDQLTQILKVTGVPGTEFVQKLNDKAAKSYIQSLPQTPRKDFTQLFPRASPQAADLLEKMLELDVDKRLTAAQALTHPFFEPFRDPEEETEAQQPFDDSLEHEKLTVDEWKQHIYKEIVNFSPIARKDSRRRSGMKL
Serine/threonine-protein kinase PAK 1, sequence (Q13153 whole entry): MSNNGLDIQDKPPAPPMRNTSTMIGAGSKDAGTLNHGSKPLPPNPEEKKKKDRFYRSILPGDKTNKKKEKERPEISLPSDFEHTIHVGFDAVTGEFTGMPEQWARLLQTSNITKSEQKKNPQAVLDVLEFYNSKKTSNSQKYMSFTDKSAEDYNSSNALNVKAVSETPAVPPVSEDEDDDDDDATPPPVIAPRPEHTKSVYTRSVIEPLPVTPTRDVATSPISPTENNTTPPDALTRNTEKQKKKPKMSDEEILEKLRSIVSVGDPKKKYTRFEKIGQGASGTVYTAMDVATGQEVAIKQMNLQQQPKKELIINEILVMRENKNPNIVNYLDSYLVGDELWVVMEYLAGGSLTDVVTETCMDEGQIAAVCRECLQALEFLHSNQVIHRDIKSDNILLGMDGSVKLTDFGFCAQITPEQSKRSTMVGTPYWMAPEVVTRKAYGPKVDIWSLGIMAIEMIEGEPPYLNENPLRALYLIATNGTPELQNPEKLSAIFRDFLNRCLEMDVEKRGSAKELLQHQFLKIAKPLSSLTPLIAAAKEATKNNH
Serine/threonine-protein kinase PLK3, sequence (Q9H4B4 whole entry): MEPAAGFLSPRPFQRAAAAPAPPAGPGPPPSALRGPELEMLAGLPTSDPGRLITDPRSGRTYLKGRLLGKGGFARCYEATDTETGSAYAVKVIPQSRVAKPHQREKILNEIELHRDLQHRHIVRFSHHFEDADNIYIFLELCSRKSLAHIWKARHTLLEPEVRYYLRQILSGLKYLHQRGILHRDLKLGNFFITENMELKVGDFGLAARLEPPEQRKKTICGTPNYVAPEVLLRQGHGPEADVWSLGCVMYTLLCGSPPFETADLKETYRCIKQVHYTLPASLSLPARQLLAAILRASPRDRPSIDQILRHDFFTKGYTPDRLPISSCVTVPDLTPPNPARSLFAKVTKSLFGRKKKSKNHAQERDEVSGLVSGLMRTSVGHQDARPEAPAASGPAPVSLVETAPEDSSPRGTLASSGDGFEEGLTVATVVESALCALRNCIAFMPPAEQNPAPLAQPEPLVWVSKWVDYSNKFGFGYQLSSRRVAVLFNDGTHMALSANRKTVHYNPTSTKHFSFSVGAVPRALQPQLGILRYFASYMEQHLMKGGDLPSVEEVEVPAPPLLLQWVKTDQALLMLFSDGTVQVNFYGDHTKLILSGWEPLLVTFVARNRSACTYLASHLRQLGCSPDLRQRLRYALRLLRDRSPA
Mitogen-activated protein kinase kinase kinase kinase 5, sequence (Q9Y4K4 whole entry): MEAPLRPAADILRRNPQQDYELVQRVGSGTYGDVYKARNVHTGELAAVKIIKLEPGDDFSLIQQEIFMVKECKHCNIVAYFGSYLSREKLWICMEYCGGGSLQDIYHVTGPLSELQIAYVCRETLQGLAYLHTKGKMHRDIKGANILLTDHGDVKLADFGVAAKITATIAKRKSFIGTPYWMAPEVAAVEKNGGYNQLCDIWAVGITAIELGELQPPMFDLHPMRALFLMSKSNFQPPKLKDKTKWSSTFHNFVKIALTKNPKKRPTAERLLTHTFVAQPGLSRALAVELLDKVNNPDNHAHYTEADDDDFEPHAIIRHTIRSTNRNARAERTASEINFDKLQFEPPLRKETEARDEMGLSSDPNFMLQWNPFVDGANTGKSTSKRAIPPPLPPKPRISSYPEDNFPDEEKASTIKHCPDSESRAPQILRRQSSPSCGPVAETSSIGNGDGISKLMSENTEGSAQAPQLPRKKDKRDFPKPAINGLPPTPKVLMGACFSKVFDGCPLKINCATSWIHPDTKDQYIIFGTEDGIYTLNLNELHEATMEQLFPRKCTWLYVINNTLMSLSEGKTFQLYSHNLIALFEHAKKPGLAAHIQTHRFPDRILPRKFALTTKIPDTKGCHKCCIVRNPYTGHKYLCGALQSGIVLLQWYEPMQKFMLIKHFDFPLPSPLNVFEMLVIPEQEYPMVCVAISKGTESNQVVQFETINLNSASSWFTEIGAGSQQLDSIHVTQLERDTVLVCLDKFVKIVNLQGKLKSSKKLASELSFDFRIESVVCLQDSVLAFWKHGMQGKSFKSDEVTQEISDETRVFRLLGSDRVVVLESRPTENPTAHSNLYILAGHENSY
MAP kinase-activated protein kinase 3, sequence (Q16644 whole entry): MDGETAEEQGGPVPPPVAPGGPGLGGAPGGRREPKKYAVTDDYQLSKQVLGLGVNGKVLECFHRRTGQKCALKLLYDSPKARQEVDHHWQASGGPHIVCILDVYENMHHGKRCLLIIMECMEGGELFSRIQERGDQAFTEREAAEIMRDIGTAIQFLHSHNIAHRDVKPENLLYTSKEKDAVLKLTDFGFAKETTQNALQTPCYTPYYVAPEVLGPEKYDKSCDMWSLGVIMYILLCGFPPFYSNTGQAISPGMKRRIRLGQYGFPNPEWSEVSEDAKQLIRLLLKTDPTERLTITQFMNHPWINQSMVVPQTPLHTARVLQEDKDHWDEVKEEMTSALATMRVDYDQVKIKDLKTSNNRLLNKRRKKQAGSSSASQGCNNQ
Ephrin type-A receptor 2, sequence (P29317 whole entry): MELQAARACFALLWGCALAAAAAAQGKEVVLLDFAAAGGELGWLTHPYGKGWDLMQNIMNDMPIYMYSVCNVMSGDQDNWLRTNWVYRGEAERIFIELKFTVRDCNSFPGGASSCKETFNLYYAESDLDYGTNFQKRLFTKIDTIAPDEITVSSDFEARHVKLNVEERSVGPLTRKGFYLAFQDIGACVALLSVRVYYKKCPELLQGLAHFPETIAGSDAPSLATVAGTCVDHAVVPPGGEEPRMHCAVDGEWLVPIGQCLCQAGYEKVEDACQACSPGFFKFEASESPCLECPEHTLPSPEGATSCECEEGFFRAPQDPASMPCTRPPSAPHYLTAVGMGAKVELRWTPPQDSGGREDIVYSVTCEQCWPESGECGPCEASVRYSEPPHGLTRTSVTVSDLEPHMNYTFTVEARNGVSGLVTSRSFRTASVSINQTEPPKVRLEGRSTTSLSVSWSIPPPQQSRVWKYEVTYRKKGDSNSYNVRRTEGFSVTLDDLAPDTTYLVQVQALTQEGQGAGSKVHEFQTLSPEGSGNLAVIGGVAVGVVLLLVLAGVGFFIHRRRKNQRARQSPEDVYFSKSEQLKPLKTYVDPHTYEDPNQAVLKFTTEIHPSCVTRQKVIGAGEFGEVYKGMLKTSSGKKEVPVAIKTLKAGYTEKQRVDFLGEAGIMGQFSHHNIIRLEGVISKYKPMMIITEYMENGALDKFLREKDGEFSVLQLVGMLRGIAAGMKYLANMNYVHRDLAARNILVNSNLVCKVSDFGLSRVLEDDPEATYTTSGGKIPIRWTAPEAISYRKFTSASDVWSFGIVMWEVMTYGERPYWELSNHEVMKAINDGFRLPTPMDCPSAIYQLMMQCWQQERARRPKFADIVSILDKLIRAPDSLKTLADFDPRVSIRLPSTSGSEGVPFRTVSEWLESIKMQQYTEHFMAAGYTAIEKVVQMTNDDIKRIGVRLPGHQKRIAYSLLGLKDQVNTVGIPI

For the compound `O=C(O)C1Nc2c(O)cc(Cl)c([N+](=O)[O-])c2C2C=CCC12` (configuration not stated), the EC50 in assay [1] was 216000 nM (inconclusive). Moreover, the IC50 is > 54000 nM (active) in [2], 27900 nM (active) in [3] and 37800 nM (active) in assay [4].
As to `O=C(CCc1ccccc1)NNc1cc(N2CCCCC2)nc(N2CCCCC2)n1`, the IC50 in assay [5] was > 99000 nM (inactive).
Regarding `Oc1ccc(N=Nc2c(O)ccc3ccccc23)cc1`, the IC50 at Exodeoxyribonuclease V was > 118000 nM (inactive).
On to `Cc1n[nH]c2ccc(-c3cncc(OCC(N)Cc4cccc(Cl)c4)c3)cc12` (configuration not stated), for which the Ki was 501 nM (active) in assay [6]; > 1580 nM (inactive) in [7]; > 2000 nM (inactive) in assay [8]; 5.01 nM (active) in assay [9]; 1260 nM (active) in assay [10]; > 2510 nM (inactive) in assay [11]. Moreover, the Ki on Ephrin type-A receptor 2 is > 3160 nM (inactive); in assay [12], > 7940 nM (inactive); in assay [13], 3980 nM (active); in assay [14], 631 nM (active); in assay [15], 3980 nM (active); in assay [16], > 1580 nM (inactive). Besides, the Ki in [17] was > 2000 nM (inactive); in assay [18] it was 25.1 nM (active); in [19], > 3980 nM (inactive); in assay [20] it was 631 nM (active); in [21] it was 20 nM (active); in [22], > 10000 nM (inactive). In addition, the Ki in [23] was 251 nM (active). The pKi in assay [18] is on record as 7.6; in assay [21], 7.7.

One may read the EC50 as the concentration needed to bring the measured effect to its halfway point. For orientation: IC50 means the concentration that inhibits the measured activity by half. As a reminder, the Ki is the dissociation constant of the complex between target and ligand, obtained from inhibition or displacement. Usually pKi stands for −log10 of the Ki, conventionally taken in molar units. High values mean a low Ki, low ones a high Ki.
